Structures can show the parent of a compound that is named as a salt.
Biological target: PI3Kδ (p110δ/p85α) (Homo sapiens (Human), UniProt O00329)
Assay: Example A3: PI3Kδ scintillation proximity assay
Type: biochemical
Conditions: scintillation proximity assay, 20 μM ATP, 4 nM PI3Kδ; read-out: PI3Kδ SPA IC50
Summary of the method: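 p110δ/p85α (4 nM) phosphorylated 20 μM PIP2 with 20 μM ATP plus [γ-33P]ATP in MOPS pH 6.7, MgCl2, DTT, CHAPS, 0.5% DMSO, at RT. Stopped with EDTA/excess ATP, product captured on WGA SPA beads overnight and counted; IC50 from percent control activity versus log inhibitor.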

PI3Kδ (p110δ/p85α), sequence (O00329 whole entry): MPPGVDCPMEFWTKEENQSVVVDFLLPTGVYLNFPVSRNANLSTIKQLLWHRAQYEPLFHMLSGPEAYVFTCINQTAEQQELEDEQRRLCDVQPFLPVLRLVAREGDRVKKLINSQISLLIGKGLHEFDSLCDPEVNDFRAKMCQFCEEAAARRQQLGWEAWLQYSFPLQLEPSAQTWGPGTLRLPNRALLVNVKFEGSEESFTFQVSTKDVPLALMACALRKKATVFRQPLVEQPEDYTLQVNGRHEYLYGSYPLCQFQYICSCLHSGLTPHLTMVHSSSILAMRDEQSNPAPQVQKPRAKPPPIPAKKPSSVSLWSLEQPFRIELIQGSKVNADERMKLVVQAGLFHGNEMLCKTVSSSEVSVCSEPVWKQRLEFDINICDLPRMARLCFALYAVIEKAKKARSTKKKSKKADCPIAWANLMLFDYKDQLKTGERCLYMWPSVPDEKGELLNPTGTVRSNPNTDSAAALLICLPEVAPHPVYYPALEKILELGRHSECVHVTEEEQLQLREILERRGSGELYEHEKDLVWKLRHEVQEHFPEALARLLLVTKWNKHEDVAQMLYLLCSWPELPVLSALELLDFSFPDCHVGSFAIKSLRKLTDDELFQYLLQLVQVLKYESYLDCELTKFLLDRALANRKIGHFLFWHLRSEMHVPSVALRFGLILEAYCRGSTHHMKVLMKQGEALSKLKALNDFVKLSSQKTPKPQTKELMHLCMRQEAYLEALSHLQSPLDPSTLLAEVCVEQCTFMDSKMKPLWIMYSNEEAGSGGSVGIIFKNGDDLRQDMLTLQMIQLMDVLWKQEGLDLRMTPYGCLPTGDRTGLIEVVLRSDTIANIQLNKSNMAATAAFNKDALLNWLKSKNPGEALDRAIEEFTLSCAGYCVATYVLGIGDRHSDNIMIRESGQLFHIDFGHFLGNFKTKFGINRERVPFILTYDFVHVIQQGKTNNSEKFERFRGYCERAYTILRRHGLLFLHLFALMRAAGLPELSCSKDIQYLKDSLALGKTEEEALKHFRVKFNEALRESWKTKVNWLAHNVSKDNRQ
PI3Kδ (p110δ/p85α), sequence (P27986 whole entry partner): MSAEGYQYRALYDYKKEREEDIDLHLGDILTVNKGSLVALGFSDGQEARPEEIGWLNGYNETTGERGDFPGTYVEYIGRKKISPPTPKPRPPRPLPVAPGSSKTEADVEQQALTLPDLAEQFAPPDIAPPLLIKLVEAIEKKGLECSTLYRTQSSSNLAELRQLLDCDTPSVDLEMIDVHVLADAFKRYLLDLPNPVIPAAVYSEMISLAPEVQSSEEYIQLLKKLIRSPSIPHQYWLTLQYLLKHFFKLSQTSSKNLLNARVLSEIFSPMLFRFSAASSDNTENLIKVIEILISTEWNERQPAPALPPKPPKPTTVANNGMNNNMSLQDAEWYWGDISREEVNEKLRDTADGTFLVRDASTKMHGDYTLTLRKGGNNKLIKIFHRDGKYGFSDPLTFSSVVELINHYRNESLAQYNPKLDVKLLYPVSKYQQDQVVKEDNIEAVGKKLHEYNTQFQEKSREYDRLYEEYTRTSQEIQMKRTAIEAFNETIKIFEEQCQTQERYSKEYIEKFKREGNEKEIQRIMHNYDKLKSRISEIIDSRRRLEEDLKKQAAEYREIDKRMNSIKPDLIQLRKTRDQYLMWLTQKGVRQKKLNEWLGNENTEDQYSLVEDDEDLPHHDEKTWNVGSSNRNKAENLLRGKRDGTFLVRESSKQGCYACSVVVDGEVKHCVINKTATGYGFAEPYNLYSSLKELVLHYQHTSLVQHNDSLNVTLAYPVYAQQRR

| Compound | IC50 [nM] |
| --- | --- |
| CCOc1c(C(C)n2nc(CC#N)c3c(N)ncnc32)cc(Cl)c(C)c1-c1ccc(C(=O)N(C)C)nc1 (racemic) [Example 165, 5-(3-{1-[4-Amino-3-(cyanomethyl)-1H-pyrazolo[3,4-d]pyrimidin-1-yl]ethyl}-5-chloro-2-ethoxy-6-methylphenyl)-N,N-dimethylpyridine-2-carboxamide] | < 10 |
| COc1c(C(C)n2nc(C)c3c(N)ncnc32)cc(Cl)c(C)c1C1CN([C@H](C)CO)C1 (stereo partly drawn) [Example 156, (2R)-2-(3-{3-[1-(4-Amino-3-methyl-1H-pyrazolo[3,4-d]pyrimidin-1-yl)ethyl]-5-chloro-2-methoxy-6-methylphenyl}azetidin-1-yl)propan-1-ol] | < 10 |
| CCOc1c(C(C)n2cc(C)c3c(N)ncnc32)cc(Cl)c(C#N)c1C1CN(C(C)C)C1 (stereo not drawn) [Example 307, 4-[1-(4-Amino-5-methyl-7H-pyrrolo[2,3-d]pyrimidin-7-yl)ethyl]-6-chloro-3-ethoxy-2-(1-isopropylazetidin-3-yl)benzonitrile] | < 10 |
| COc1c(C(C)n2nc(C(F)F)c3c(N)ncnc32)cc(C#N)c(C)c1C1CN(CCO)C1 (racemic) [Example 130, 5-{1-[4-Amino-3-(difluoromethyl)-1H-pyrazolo[3,4-d]pyrimidin-1-yl]ethyl}-3-[1-(2-hydroxyethyl)azetidin-3-yl]-4-methoxy-2-methylbenzonitrile] | < 10 |
| COc1c(C(C)n2ccc3c(N)ncnc32)cc(Cl)c(C)c1-c1ccc(C(=O)N(C)C)nc1 (stereo not drawn) [Example 12, 5-{3-[1-(4-Amino-7H-pyrrolo[2,3-d]pyrimidin-7-yl)ethyl]-5-chloro-2-methoxy-6-methylphenyl}-N,N-dimethylpyridine-2-carboxamide trifluoroacetate] | 200 to 500 |
| CCOc1c(C(C)n2nc(C)c3c(N)ncnc32)cc(Cl)c(C#N)c1C1CN(C(C)(C)C(N)=O)C1 (single isomer, unassigned) [Example 239, 2-(3-{3-[1-(4-Amino-3-methyl-1H-pyrazolo[3,4-d]pyrimidin-1-yl)ethyl]-5-chloro-6-cyano-2-ethoxyphenyl}azetidin-1-yl)-2-methylpropanamide] | < 10 |
| CCOc1c(C(C)n2nc(C)c3c(N)ncnc32)cc(Cl)c(C#N)c1-c1cncc(-c2ncco2)c1 (racemic) [Example 339, 4-[1-(4-amino-3-methyl-1H-pyrazolo[3,4-d]pyrimidin-1-yl)ethyl]-6-chloro-3-ethoxy-2-[5-(1,3-oxazol-2-yl)pyridin-3-yl]benzonitrile] | < 10 |
| CCOc1c(C(C)n2nc(C)c3c(N)ncnc32)cc(Cl)c(C#N)c1C1CN(CC#N)C1 (single isomer, unassigned) [Example 235, 4-[1-(4-Amino-3-methyl-1H-pyrazolo[3,4-d]pyrimidin-1-yl)ethyl]-6-chloro-2-[1-(cyanomethyl)azetidin-3-yl]-3-ethoxybenzonitrile] | < 10 |
| COc1c(C(C)n2nc(C(F)F)c3c(N)ncnc32)cc(Cl)c(F)c1C1CN(CCO)C1 (stereo not drawn) [Example 74, 2-[3-(3-{1-[4-Amino-3-(difluoromethyl)-1H-pyrazolo[3,4-d]pyrimidin-1-yl]ethyl}-5-chloro-6-fluoro-2-methoxyphenyl)azetidin-1-yl]ethanol] | < 10 |
| COc1c(C(C)n2nc(C)c3c(N)ncnc32)cc(Cl)c(C)c1C1CCN(CC(C)(C)O)CC1 (racemic) [Example 164, 1-(4-{3-[1-(4-Amino-3-methyl-1H-pyrazolo[3,4-d]pyrimidin-1-yl)ethyl]-5-chloro-2-methoxy-6-methylphenyl}piperidin-1-yl)-2-methylpropan-2-ol] | < 10 |
| 4-[1-(4-Amino-3-methyl-1H-pyrazolo[3,4-d]pyrimidin-1-yl)ethyl]-6-chloro-2-[1-(2-hydroxyethyl)azetidin-3-yl]-3-methoxybenzonitrile-d4 [Example 297] | < 10 |

The remaining lines, values ahead:

| IC50 [nM] | Compound |
| --- | --- |
| < 10 | CCOc1c(C(C)n2nc(C)c3c(N)ncnc32)cc(Cl)c(C#N)c1C1CN(CC2CCOC2)C1 (single isomer, unassigned) [Example 231, 4-[1-(4-Amino-3-methyl-1H-pyrazolo[3,4-d]pyrimidin-1-yl)ethyl]-6-chloro-3-ethoxy-2-[1-(tetrahydrofuran-3-ylmethyl)azetidin-3-yl]benzonitrile] |
| < 10 | COc1c(C(C)n2nc(C)c3c(N)ncnc32)cc(Cl)c(C#N)c1C1CN(C2CCOCC2)C1 (single isomer, unassigned) [Example 277, 4-[1-(4-Amino-3-methyl-1H-pyrazolo[3,4-d]pyrimidin-1-yl)ethyl]-6-chloro-3-methoxy-2-[1-(tetrahydro-2H-pyran-4-yl)azetidin-3-yl]benzonitrile] |
| < 10 | CCOc1c(C(C)n2nc(C)c3c(N)ncnc32)cc(Cl)c(C)c1C1CN(C(C)C)C1 (stereo not drawn) [Example 94, 1-{1-[5-Chloro-2-ethoxy-3-(1-isopropylazetidin-3-yl)-4-methylphenyl]ethyl}-3-methyl-1H-pyrazolo[3,4-d]pyrimidin-4-amine bis(trifluoroacetate)] |
| < 10 | CCOc1c(C(C)n2nc(C)c3c(N)ncnc32)cc(Cl)c(C#N)c1C1CN(CCC(F)(F)F)C1 (single isomer, unassigned) [Example 234, 4-[1-(4-Amino-3-methyl-1H-pyrazolo[3,4-d]pyrimidin-1-yl)ethyl]-6-chloro-3-ethoxy-2-[1-(3,3,3-trifluoropropyl)azetidin-3-yl]benzonitrile] |
| < 10 | CCOc1c(C(C)n2nc(C)c3c(N)ncnc32)cc(Cl)c(C#N)c1C1CN(C(=O)C(C)(C)O)C1 (single isomer, unassigned) [Example 247, 4-[1-(4-Amino-3-methyl-1H-pyrazolo[3,4-d]pyrimidin-1-yl)ethyl]-6-chloro-3-ethoxy-2-[1-(2-hydroxy-2-methylpropanoyl)azetidin-3-yl]benzonitrile] |
| < 10 | CCOc1c(C(C)n2nc(C)c3c(N)ncnc32)cc(Cl)c(C#N)c1-c1ccc(C(=O)N(C)C)nc1 (racemic) [Example 44, 5-(3-(1-(4-amino-3-methyl-1H-pyrazolo[3,4-d]pyrimidin-1-yl)ethyl)-5-chloro-6-cyano-2-ethoxyphenyl)-N,N-dimethylpicolinamide] |
| < 10 | COc1c(C(C)n2nc(C(F)F)c3c(N)ncnc32)cc(C#N)c(F)c1C1CN(C[C@H](C)O)C1 (stereo partly drawn) [Example 77, 5-(1-(4-Amino-3-(difluoromethyl)-1H-pyrazolo[3,4-d]pyrimidin-1-yl)ethyl)-2-fluoro-3-(1-((S)-2-hydroxypropyl)azetidin-3-yl)-4-methoxybenzonitrile] |
| < 10 | CCOc1c(C(C)n2nc(C)c3c(N)ncnc32)cc(Cl)c(C#N)c1N1CC(OC)C1 (stereo not drawn) [Example 319, 4-[1-(4-amino-3-methyl-1H-pyrazolo[3,4-d]pyrimidin-1-yl)ethyl]-6-chloro-3-ethoxy-2-(3-methoxyazetidin-1-yl)benzonitrile] |
| < 10 | CCOc1c(C(C)n2nc(C)c3c(N)ncnc32)cc(Cl)c(C#N)c1C1CN(C(C)(C)C(=O)OC(C)(C)C)C1 (stereo not drawn) [Example 236, tert-Butyl 2-(3-{3-[1-(4-amino-3-methyl-1H-pyrazolo[3,4-d]pyrimidin-1-yl)ethyl]-5-chloro-6-cyano-2-ethoxyphenyl}azetidin-1-yl)-2-methylpropanoate] |
| < 10 | COc1c(C(C)n2nc(C)c3c(N)ncnc32)cc(Cl)c(Cl)c1C1CN(C[C@@H](C)O)C1 (stereo partly drawn) [Example 302, (2R)-1-(3-{3-[1-(4-Amino-3-methyl-1H-pyrazolo[3,4-d]pyrimidin-1-yl)ethyl]-5,6-dichloro-2-methoxyphenyl}azetidin-1-yl)propan-2-ol] |
| < 10 | CCNC(=O)c1c(C)c(Cl)cc(C(C)n2nc(-c3ccc4oc(N)nc4c3)c3c(N)ncnc32)c1OCC (racemic) [Example 89, 3-(1-(4-Amino-3-(2-aminobenzo[d]oxazol-5-yl)-1H-pyrazolo[3,4-d]pyrimidin-1-yl)ethyl)-5-chloro-2-ethoxy-N-ethyl-6-methylbenzamide] |
| < 10 | COc1c(C(C)n2nc(C(F)F)c3c(N)ncnc32)cc(C#N)c(C)c1C1CN(C[C@@H](C)O)C1 (stereo partly drawn) [Example 132, 5-{1-[4-Amino-3-(difluoromethyl)-1H-pyrazolo[3,4-d]pyrimidin-1-yl]ethyl}-3-{1-[(2R)-2-hydroxypropyl]azetidin-3-yl}-4-methoxy-2-methylbenzonitrile] |
| < 10 | COc1c(C(C)n2nc(C)c3c(N)ncnc32)cc(Cl)c(C#N)c1C1CN(C(=O)NC(C)(C)C)C1 (single isomer, unassigned) [Example 292, 3-{3-[1-(4-Amino-3-methyl-1H-pyrazolo[3,4-d]pyrimidin-1-yl)ethyl]-5-chloro-6-cyano-2-methoxyphenyl}-N-(tert-butyl)azetidine-1-carboxamide] |
| < 10 | COc1c(C(C)n2nc(C)c3c(N)ncnc32)cc(Cl)c(C)c1-c1cnn(C2CCN(C(C)=O)CC2)c1 (single isomer, unassigned) [Example 182, 1-(1-{3-[1-(1-Acetylpiperidin-4-yl)-1H-pyrazol-4-yl]-5-chloro-2-methoxy-4-methylphenyl}ethyl)-3-methyl-1H-pyrazolo[3,4-d]pyrimidin-4-amine] |
| < 10 | CCOc1c(C(C)n2nc(C)c3c(N)ncnc32)cc(Cl)c(C#N)c1-c1cncnc1 (racemic) [Example 329, 4-[1-(4-amino-3-methyl-1H-pyrazolo[3,4-d]pyrimidin-1-yl)ethyl]-6-chloro-3-ethoxy-2-pyrimidin-5-ylbenzonitrile] |
| < 10 | COc1c(C(C)n2nc(C)c3c(N)ncnc32)cc(Cl)c(C)c1C1CN(C2(CC#N)CCC2)C1 (single isomer, unassigned) [Example 161, [1-(3-{3-[1-(4-Amino-3-methyl-1H-pyrazolo[3,4-d]pyrimidin-1-yl)ethyl]-5-chloro-2-methoxy-6-methylphenyl}azetidin-1-yl)cyclobutyl]acetonitrile] |
